{
  "source": "patent US20100298141A1",
  "about": "“SUBSTITUTED PYRIDINE N-OXIDE HERBICIDES” (E. I. DU PONT DE NEMOURS AND COMPANY, priority 2007, published 2010)",
  "key": {"soybean": {"system": "soybean", "test": "Test C pre-/postemergence test", "type": "in vivo, Glycine max", "outline": "(§1)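 Compounds in a non-phytotoxic solvent with surfactant applied preemergence to seeded pots and, at the same time, postemergence to plants 2–18 cm tall (1- to 4-leaf stage). Paddy tests: pots flooded to 3 cm, compound applied into the water, depth held throughout.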"}, "pigweed": {"system": "pigweed", "test": "Test C pre-/postemergence test", "type": "in vivo, Amaranthus retroflexus", "outline": "as §1"}, "Goosegrass": {"system": "Goosegrass", "test": "Test C pre-/postemergence test", "type": "in vivo, Eleusin indica", "outline": "as §1"}, "crabgrass": {"system": "crabgrass", "test": "Test A pre-/postemergence greenhouse test", "type": "in vivo, Digitaria sanguinalis", "details": "for Plant response rating, Crabgrass, Large: 0 to 100 scale where 0 is no effect and 100 is complete control; for Crabgrass, Large plant response rating: 0 to 100 scale", "outline": "(§2)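 Pre: directed soil spray on seeded loam/sand. Post: foliar spray, plants 2–10 cm, 1–2 leaf stage, applied concurrently. Vehicle: non-phytotoxic solvent + surfactant. Greenhouse ~10 d; visual injury rating vs untreated controls.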"}, "bermudagrass": {"system": "bermudagrass", "test": "Test C pre-/postemergence test", "type": "in vivo, Cynodon dactylon", "outline": "as §1"}, "morningglory [1]": {"system": "morningglory", "test": "Test C pre-/postemergence test", "type": "in vivo, Ipomoea coccinea", "outline": "as §1"}, "barnyardgrass": {"system": "barnyardgrass", "test": "Test C flooded paddy test", "type": "in vivo, Echinochloa crus-galli", "details": "Flood", "outline": "(§3)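 Pots were flooded to 3 cm above the soil surface at treatment, compound applied directly to the paddy water, and that depth held throughout. Plants were kept in a greenhouse for 13 to 15 days, then visually rated against untreated controls.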"}, "yellow nutsedge": {"system": "yellow nutsedge", "test": "Test C pre-/postemergence test", "type": "in vivo, Cyperus esculentus", "outline": "as §1"}, "Italian ryegrass": {"system": "Italian ryegrass", "test": "Test C pre-/postemergence test", "type": "in vivo, Lolium multiflorum", "outline": "as §1"}, "[2]": {"system": "common (oilseed) sunflower", "test": "Test C pre-/postemergence test", "type": "in vivo, Helianthus annuus", "outline": "as §1"}, "wheat [3]": {"system": "wheat", "test": "Test A pre-/postemergence greenhouse test", "type": "in vivo, Triticum aestivum", "details": "for Plant response rating, Wheat: 0 to 100 scale where 0 is no effect and 100 is complete control; for Wheat plant response rating: 0 to 100 scale", "outline": "as §2"}, "corn": {"system": "corn", "test": "Test A pre-/postemergence greenhouse test", "type": "in vivo, Zea mays", "details": "for Plant response rating, Corn: 0 to 100 scale where 0 is no effect and 100 is complete control; for Corn plant response rating: 0 to 100 scale", "outline": "as §2"}, "morningglory [4]": {"system": "morningglory", "test": "Test A pre-/postemergence greenhouse test", "type": "in vivo, Ipomoea spp.", "details": "for Plant response rating, Morningglory: 0 to 100 scale where 0 is no effect and 100 is complete control; for Morningglory plant response rating: 0 to 100 scale", "outline": "as §2"}, "giant foxtail": {"system": "giant foxtail", "test": "Test A pre-/postemergence greenhouse test", "type": "in vivo, Setaria faberi", "details": "for Plant response rating, Foxtail, Giant: 0 to 100 scale where 0 is no effect and 100 is complete control; for Foxtail, Giant plant response rating: 0 to 100 scale", "outline": "as §2"}, "wheat [5]": {"system": "wheat", "test": "Test C pre-/postemergence test", "type": "in vivo, Triticum aestivum", "outline": "as §1"}, "umbrella sedge": {"system": "umbrella sedge", "test": "Test C flooded paddy test", "type": "in vivo, Cyperus difformis", "details": "Flood", "outline": "as §3"}, "[6]": {"details": "62 g ai/ha, Preemergence, scale 0 to 100"}, "[7]": {"details": "125 g ai/ha, preemergence, scale 0 (no effect) to 100 (complete control)"}, "[8]": {"details": "preemergence, 250 g ai/ha, scale 0 (no effect) to 100 (complete control)"}, "[9]": {"details": "Preemergence, 31 g ai/ha, scale 0 to 100 (0 no effect, 100 complete control)"}, "[10]": {"details": "Postemergence, 500 g ai/ha, 0 is no effect, 100 is complete control"}, "[11]": {"details": "Preemergence, 125 g ai/ha, 0 no effect, 100 complete control"}, "[12]": {"details": "62 g ai/ha, scale 0 to 100 (0 no effect, 100 complete control)"}, "[13]": {"details": "250 g ai/ha, scale 0 to 100, 0 no effect, 100 complete control, 13 to 15 days"}},
  "data": [
    {"smiles": "Cc1cc([S+]([O-])Cc2c(C(F)(F)F)nn(C)c2OCC(F)(F)F)[n+]([O-])cc1Cl", "note": "(centres unmarked) [Compound 70]", "values": [
      {"measurement": "Soybean plant response rating", "setting": "soybean; [6]", "value": 30},
      {"measurement": "Soybean plant response rating", "setting": "soybean; [7]", "value": 80},
      {"measurement": "Soybean plant response rating", "setting": "soybean; [8]", "value": 85},
      {"measurement": "Pigweed plant response rating", "setting": "pigweed; [6]", "value": 100},
      {"measurement": "Pigweed plant response rating", "setting": "pigweed; [7]", "value": 100},
      {"measurement": "Plant response rating, Pigweed", "setting": "pigweed; [9]", "value": 100},
      {"measurement": "Pigweed plant response rating", "setting": "pigweed; [8]", "value": 100},
      {"measurement": "Goosegrass plant response rating", "setting": "Goosegrass; [6]", "value": 100},
      {"measurement": "Goosegrass plant response rating", "setting": "Goosegrass; [7]", "value": 100},
      {"measurement": "Plant response rating, Goosegrass", "setting": "Goosegrass; [9]", "value": 100},
      {"measurement": "Goosegrass plant response rating", "setting": "Goosegrass; [8]", "value": 100},
      {"measurement": "Plant response rating, Crabgrass, Large", "setting": "crabgrass; Postemergence, 125 g ai/ha", "value": 50},
      {"measurement": "Crabgrass, Large plant response rating", "setting": "crabgrass; [10]", "value": 80},
      {"measurement": "Crabgrass, Large plant response rating", "setting": "crabgrass; [11]", "value": 90},
      {"measurement": "Plant response rating, Crabgrass, Large", "setting": "crabgrass; Preemergence, 500 g ai/ha", "value": 100},
      {"measurement": "Bermudagrass plant response rating", "setting": "bermudagrass; 62 g ai/ha, Preemergence, scale 0 to 100 (0 no effect, 100 complete control)", "value": 100},
      {"measurement": "Bermudagrass plant response rating", "setting": "bermudagrass; [7]", "value": 100},
      {"measurement": "Plant response rating, Bermudagrass", "setting": "bermudagrass; [9]", "value": 100},
      {"measurement": "Bermudagrass plant response rating", "setting": "bermudagrass; [8]", "value": 100},
      {"measurement": "Morningglory plant response rating", "setting": "morningglory [1]; [6]", "value": 80},
      {"measurement": "Morningglory plant response rating", "setting": "morningglory [1]; [7]", "value": 100},
      {"measurement": "Plant response rating, Morningglory", "setting": "morningglory [1]; [9]", "value": 0},
      {"measurement": "Morningglory plant response rating", "setting": "morningglory [1]; [8]", "value": 100},
      {"measurement": "Plant response rating, Barnyardgrass", "setting": "barnyardgrass; [12]", "value": 0},
      {"measurement": "Plant response rating, Barnyardgrass", "setting": "barnyardgrass; [13]", "value": 95},
      {"measurement": "Nutsedge, Yellow plant response rating", "setting": "yellow nutsedge; [6]", "value": 65},
      {"measurement": "Nutsedge, Yellow plant response rating", "setting": "yellow nutsedge; [7]", "value": 65},
      {"measurement": "Plant response rating, Nutsedge, Yellow", "setting": "yellow nutsedge; [9]", "value": 60},
      {"measurement": "Nutsedge, Yellow plant response rating", "setting": "yellow nutsedge; [8]", "value": 95},
      {"measurement": "Ryegrass, Italian plant response rating", "setting": "Italian ryegrass; [6]", "value": 85},
      {"measurement": "Ryegrass, Italian plant response rating", "setting": "Italian ryegrass; [7]", "value": 100},
      {"measurement": "Plant response rating, Ryegrass, Italian", "setting": "Italian ryegrass; [9]", "value": 85},
      {"measurement": "Ryegrass, Italian plant response rating", "setting": "Italian ryegrass; [8]", "value": 100},
      {"measurement": "Sunflower plant response rating", "setting": "[2]; [6]", "value": 45},
      {"measurement": "Sunflower plant response rating", "setting": "[2]; [7]", "value": 45},
      {"measurement": "Plant response rating, Sunflower", "setting": "[2]; [9]", "value": 0},
      {"measurement": "Sunflower plant response rating", "setting": "[2]; [8]", "value": 80},
      {"measurement": "Plant response rating, Wheat", "setting": "wheat [3]; Postemergence, 125 g ai/ha", "value": 70},
      {"measurement": "Wheat plant response rating", "setting": "wheat [3]; [10]", "value": 70},
      {"measurement": "Wheat plant response rating", "setting": "wheat [3]; [11]", "value": 50},
      {"measurement": "Plant response rating, Wheat", "setting": "wheat [3]; Preemergence, 500 g ai/ha", "value": 90},
      {"measurement": "Plant response rating, Corn", "setting": "corn; Postemergence, 125 g ai/ha", "value": 50},
      {"measurement": "Corn plant response rating", "setting": "corn; [10]", "value": 80},
      {"measurement": "Corn plant response rating", "setting": "corn; [11]", "value": 20},
      {"measurement": "Plant response rating, Corn", "setting": "corn; Preemergence, 500 g ai/ha", "value": 90},
      {"measurement": "Plant response rating, Morningglory", "setting": "morningglory [4]; Postemergence, 125 g ai/ha", "value": 30},
      {"measurement": "Morningglory plant response rating", "setting": "morningglory [4]; [10]", "value": 70},
      {"measurement": "Morningglory plant response rating", "setting": "morningglory [4]; [11]", "value": 30},
      {"measurement": "Plant response rating, Morningglory", "setting": "morningglory [4]; Preemergence, 500 g ai/ha", "value": 100},
      {"measurement": "Plant response rating, Foxtail, Giant", "setting": "giant foxtail; Postemergence, 125 g ai/ha", "value": 60},
      {"measurement": "Foxtail, Giant plant response rating", "setting": "giant foxtail; [10]", "value": 90},
      {"measurement": "Foxtail, Giant plant response rating", "setting": "giant foxtail; [11]", "value": 100},
      {"measurement": "Plant response rating, Foxtail, Giant", "setting": "giant foxtail; Preemergence, 500 g ai/ha", "value": 100},
      {"measurement": "Wheat plant response rating", "setting": "wheat [5]; [6]", "value": 60},
      {"measurement": "Wheat plant response rating", "setting": "wheat [5]; [7]", "value": 95},
      {"measurement": "Plant response rating, Wheat", "setting": "wheat [5]; [9]", "value": 15},
      {"measurement": "Wheat plant response rating", "setting": "wheat [5]; [8]", "value": 95},
      {"measurement": "Plant response rating, Sedge, Umbrella", "setting": "umbrella sedge; [12]", "value": 80},
      {"measurement": "Plant response rating, Sedge, Umbrella", "setting": "umbrella sedge; [13]", "value": 100}
    ]}
  ]
}
